Common to all, as to format: cell-based
The target of experiment [1] is T1, human TLR2 (Homo sapiens (Human), UniProt O60603). Description: HEK-Blue hTLR2 antagonism assay (SEAP reporter), agonist Pam2CSK4. The following applies: HEK-Blue hTLR2 cells; Pam2CSK4 (TLR2/6 agonist) at approx. 3×EC50; 18 h; 8-point dilutions. The protocol:
(§1) Synthetic diacylated lipoprotein (Pam2CSK4, TLR2/6 agonist) and synthetic triacylated lipoprotein (Pam3CSK4, TLR1/2 agonist) were obtained from InvivoGen and were dissolved in endotoxin-free water to a concentration 1 mg/mL, vortexed until complete solubilization, and stored in aliquots at −20° C. Prior to addition to cells, an aliquot of the dissolved ligand was vortexed shortly and then was diluted in medium to 25 ng/mL Pam2CSK4 or 1000 ng/mL Pam3CSK4.
(§2) Test compounds were solubilized fresh to 10-20 mM stocks in DMSO and sonicated for 5-10 minutes in a water bath sonicator. Serial dilutions were prepared in DMSO, and then diluted in medium. The final concentration of DMSO used in the assay was 1%.
(§3) HEK-Blue hTLR2 reporter cells (InvivoGen) are HEK-293 cells stably expressing both the human TLR2 gene and a secreted embryonic alkaline phosphatase (SEAP) reporter construct downstream of NFκB promotor sites. HEK-Blue hTLR2 reporters were cultured according to manufacturer's protocol using Dulbecco's Modified Eagle Medium (DMEM; Gibco) containing 1× GlutaMax (Gibco), 10% heat-inactivated Fetal Bovine Serum (Gibco), Pen-Strep (50 U/mL penicillin, 50 μg/mL streptomycin, Gibco), 100 μg/mL Normocin (InvivoGen), and the selective antibiotic, lx HEK-Blue Selection (InvivoGen). Quanti-Blue reagent (InvivoGen) for detection and quantification of secreted alkaline phosphatase was dissolved in 100 mL of endotoxin-free water, warmed to 37° C. for 30 minutes and then filtered using a 0.2 μm membrane.
(§4) On day 1, 50 μL of each test compound dilution in duplicates or a vehicle control was added to each well of a 96-well plate followed by addition of 150 μL of HEK-Blue hTLR2 cell suspension (1×10^5 cells/well) and incubated at 37° C./5% CO2 for 2 h. Next, 50 μL of an approximate 3×EC50 concentration of each agonist (Pam2CSK4 or Pam3CSK4) was added to the wells containing test compounds or the vehicle control. The plates were then incubated at 37° C./5% CO2 for 18 h. For each assay run, non-treated HEK-Blue hTLR2 cells were treated with serial dilutions of agonists to determine EC50 values for the respective run.
(§5) On day 2, secreted alkaline phosphatase (SEAP) activity was detected in cell culture supernatants. In brief, 20 μL was collected from each well and transferred to a 96-well plate. Next, 200 μL of Quanti-Blue detection reagent was added to each well. Plates were incubated at room temperature for 15 min and SEAP activity was assessed by spectrophotometer OD reading at 655 nm. […] IC50 values were calculated based on 8-point dilutions for each compound.

Experiment [2] deals with T1, human TLR2. Description: HEK-Blue hTLR2 antagonism assay (SEAP reporter), agonist Pam3CSK4. To be noted: HEK-Blue hTLR2 cells; Pam3CSK4 (TLR1/2 agonist) at approx. 3×EC50; 18 h; 8-point dilutions. The protocol:
as §1, §2, §3, §4, §5

The target in a further experiment is human TLR9 (Homo sapiens (Human), UniProt Q9NR96). The experiment in a line: HEK-Blue hTLR9 antagonism assay (SEAP reporter), agonist ODN 2006. To be noted: HEK-Blue hTLR9 cells; ODN 2006 (TLR9 agonist) at approx. 3×EC50; 18 h; exact values 8-point, approximate (~ or <) 4-point dilutions; read-out: IC50 (μM) with ODN2006. The method, then:
Synthetic ODNs (ODN 2006 (ODN 7909), class B CpG oligonucleotide, TLR9 agonist) was obtained from InvivoGen and was dissolved in endotoxin-free water to a concentration 500 μM, vortexed until complete solubilization, and stored in aliquots at −20° C. Prior to addition to cells, an aliquot of the dissolved ligand was vortexed shortly and then was diluted in medium to 50 μM.
as §2
as §3, with “hTLR9” for “hTLR2”, “TLR9” for “TLR2”, “hTLR9 cells” for “hTLR2 reporters”, “antibiotics, 10 μg/mL Blasticidin (InvivoGen), and 100 μg/mL Zeocin” for “antibiotic, lx HEK-Blue Selection”
as §4, with “hTLR9” for “hTLR2”, “TLR9 agonist, ODN 2006,” for “each agonist (Pam2CSK4 or Pam3CSK4)”, “vehicle-treated” for “non-treated”, “agonist” for “agonists”
On day 2, secreted alkaline phosphatase (SEAP) activity was detected in cell culture supernatants. In brief, 30 μL was collected from each well and transferred to a 96-well plate. Next, 200 μL of Quanti-Blue detection reagent was added to each well. Plates were incubated at 37° C. for 60 min. and SEAP activity was assessed by spectrophotometer OD reading at 655 nm. […] Exact IC50 values were calculated based on 8-point dilutions for each compound. Approximate IC50 values (˜ or <) were calculated based on 4-point dilutions for each compound.

Several values for one entry are separate records, joined by “and”; a condition that tells them apart may be missing. Equal entries are not always repeated.

The term IC50 denotes the midpoint of a concentration-inhibition curve.

T1 sequence (O60603 21-784): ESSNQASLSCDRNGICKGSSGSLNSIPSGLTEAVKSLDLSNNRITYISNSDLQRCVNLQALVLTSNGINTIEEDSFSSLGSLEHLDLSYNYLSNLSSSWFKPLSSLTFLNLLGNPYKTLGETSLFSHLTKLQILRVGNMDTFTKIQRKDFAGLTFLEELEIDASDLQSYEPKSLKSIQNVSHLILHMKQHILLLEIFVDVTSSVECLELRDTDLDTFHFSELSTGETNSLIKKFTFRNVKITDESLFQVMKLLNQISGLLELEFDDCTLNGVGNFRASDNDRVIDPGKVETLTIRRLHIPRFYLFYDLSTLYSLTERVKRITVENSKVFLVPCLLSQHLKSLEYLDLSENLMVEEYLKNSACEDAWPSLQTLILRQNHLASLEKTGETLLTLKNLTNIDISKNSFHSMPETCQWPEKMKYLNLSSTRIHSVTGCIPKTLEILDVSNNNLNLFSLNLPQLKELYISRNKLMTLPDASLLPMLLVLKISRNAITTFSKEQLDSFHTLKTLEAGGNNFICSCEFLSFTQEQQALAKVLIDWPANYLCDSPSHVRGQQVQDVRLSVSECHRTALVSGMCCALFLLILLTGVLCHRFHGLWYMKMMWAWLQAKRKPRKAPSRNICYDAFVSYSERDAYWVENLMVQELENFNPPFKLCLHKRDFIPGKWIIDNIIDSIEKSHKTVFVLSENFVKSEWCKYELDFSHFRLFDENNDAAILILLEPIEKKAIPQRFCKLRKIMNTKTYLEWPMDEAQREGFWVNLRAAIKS
Sequence of human TLR9 (Q9NR96 26-1032): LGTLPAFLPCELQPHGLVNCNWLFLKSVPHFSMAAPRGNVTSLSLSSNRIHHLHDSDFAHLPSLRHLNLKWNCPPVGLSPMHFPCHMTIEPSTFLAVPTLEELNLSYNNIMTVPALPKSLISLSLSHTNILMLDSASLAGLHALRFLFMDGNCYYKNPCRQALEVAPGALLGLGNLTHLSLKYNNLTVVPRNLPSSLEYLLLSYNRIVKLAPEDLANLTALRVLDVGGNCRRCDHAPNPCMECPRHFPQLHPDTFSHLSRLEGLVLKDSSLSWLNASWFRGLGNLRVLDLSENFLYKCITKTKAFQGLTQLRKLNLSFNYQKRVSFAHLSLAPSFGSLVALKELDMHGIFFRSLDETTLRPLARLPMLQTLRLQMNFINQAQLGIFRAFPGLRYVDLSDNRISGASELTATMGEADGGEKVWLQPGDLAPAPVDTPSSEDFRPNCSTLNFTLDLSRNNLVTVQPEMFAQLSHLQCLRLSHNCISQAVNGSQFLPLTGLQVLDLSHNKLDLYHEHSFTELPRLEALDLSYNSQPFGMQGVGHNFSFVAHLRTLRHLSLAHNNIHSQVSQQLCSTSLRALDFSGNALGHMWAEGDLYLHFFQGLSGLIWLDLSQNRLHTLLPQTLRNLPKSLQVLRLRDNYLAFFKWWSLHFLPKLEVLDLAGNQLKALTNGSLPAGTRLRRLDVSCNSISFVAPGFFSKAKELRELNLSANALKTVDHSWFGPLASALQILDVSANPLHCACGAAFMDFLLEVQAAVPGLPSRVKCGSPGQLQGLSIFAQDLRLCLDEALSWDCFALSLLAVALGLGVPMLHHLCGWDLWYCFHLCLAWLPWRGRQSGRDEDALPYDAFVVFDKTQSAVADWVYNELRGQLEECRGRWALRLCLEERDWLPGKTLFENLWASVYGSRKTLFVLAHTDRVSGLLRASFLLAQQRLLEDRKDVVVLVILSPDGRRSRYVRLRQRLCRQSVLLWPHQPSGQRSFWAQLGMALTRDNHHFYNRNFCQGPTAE

On to `O=Cc1cc(C(=O)Nc2nc(-c3ccc(N4CCCC4)cc3)ns2)cc(F)c1O` [Compound 167, 3-fluoro-5-formyl-4-hydroxy-N-(3-(4-(pyrrolidin-1-yl)phenyl)-1,2,4-thiadiazol-5-yl)benzamide], for which the IC50 stood at 1.5 µM at human TLR2 [1], 0.6 µM at human TLR2 [2] and 0.5 µM on human TLR9.
The like results for `CN1CCN(/N=C/c2cc(-c3nc(-c4ccc(N5CCCC5)nc4)ns3)cc(F)c2O)CC1` [Compound 165, 2-fluoro-6-(((4-methylpiperazin-1-yl)imino)methyl)-4-(3-(6-(pyrrolidin-1-yl)pyridin-3-yl)-1,2,4-thiadiazol-5-yl)phenol] were, in that order, 1.1 µM, 0.9 µM and 0.41 µM.
Take `O=Cc1cc(C(=O)Nc2cnc(N3CCCCC3)s2)cc(F)c1O` [Compound 7, 3-fluoro-5-formyl-4-hydroxy-N-(2-(piperidin-1-yl)thiazol-5-yl)benzamide]: the IC50 is more than 100 µM at human TLR2 [1], more than 100 µM on human TLR2 [2] and more than 33 µM at human TLR9.
In the case of `O=Cc1cc(C(=O)Nc2ncc(-c3cccc(N4CCCC4)c3)s2)cc(F)c1O` [Compound 12, 3-fluoro-5-formyl-4-hydroxy-N-(5-(3-(pyrrolidin-1-yl)phenyl)thiazol-2-yl)benzamide], the IC50 is 0.6 µM on human TLR2 [1], 0.6 µM on human TLR2 [2] and 0.2 µM at human TLR9.
In the case of `O=Cc1cc(C(=O)Nc2nnc(-c3ccccc3)s2)cc(F)c1O` [Compound 2, 3-fluoro-5-formyl-4-hydroxy-N-(5-phenyl-1,3,4-thiadiazol-2-yl)benzamide], the IC50 at human TLR2 [1] was 6.7 µM; on human TLR2 [2], 2.2 µM; at human TLR9, approximately 0.5 µM.
Taken in the same sequence, the figures for `O=Cc1cc(C(=O)Nc2ncc(-c3ccc(F)cc3)s2)cc(F)c1O` [Compound 11, 3-fluoro-N-(5-(4-fluorophenyl)thiazol-2-yl)-5-formyl-4-hydroxybenzamide] were 1 µM, 0.7 µM and 0.4 µM.
With `O=Cc1cc(NC(=O)c2ncc(-c3ccccc3)s2)cc(F)c1O` [Compound 10, N-(3-fluoro-5-formyl-4-hydroxyphenyl)-5-phenylthiazole-2-carboxamide], the IC50 at human TLR2 [1] is 1.6 µM; on human TLR2 [2], 0.9 µM; at human TLR9, approximately 1 µM.
`O=C(c1cc(F)c(O)c(/C=N/N2CCOCC2)c1)N1CCC(c2ccc(N3CCCC3)cc2)CC1` [Compound 164, (3-fluoro-4-hydroxy-5-((morpholinoimino)methyl)phenyl)(4-(4-(pyrrolidin-1-yl)phenyl)piperidin-1-yl)methanone]: the figures for the IC50 on human TLR2 [1], at human TLR2 [2] and on human TLR9 were 1.1 µM, 0.5 µM and 0.26 µM, respectively.
The like results for `O=Cc1cc(C(=O)Nc2cnc(N3CCCC3)c(C(F)(F)F)c2)cc(F)c1O` [Compound 19, 3-fluoro-5-formyl-4-hydroxy-N-(6-(pyrrolidin-1-yl)-5-(trifluoromethyl)pyridin-3-yl)benzamide] were, in that order, 0.4 µM, 0.3 µM and 0.6 µM.
Turning to `O=Cc1cc(-c2cnn(-c3ccc(C(F)(F)F)cc3)c2)cc(F)c1O` [Compound 127, 3-fluoro-2-hydroxy-5-(1-(4-(trifluoromethyl)phenyl)-1H-pyrazol-4-yl)benzaldehyde], the IC50 turned out to be 0.5 µM on human TLR2 [1], 0.5 µM on human TLR2 [2] and 0.1 µM on human TLR9.
In the case of `CN1CCN(/N=C/c2cc(C(=O)N3CCC(c4ccc(N5CCCC5)cc4)CC3)cc(F)c2O)CC1` [Compound 163, (3-fluoro-4-hydroxy-5-(((4-methylpiperazin-1-yl)imino)methyl)phenyl)(4-(4-(pyrrolidin-1-yl)phenyl)piperidin-1-yl)methanone], the IC50 on human TLR2 [1] is 0.6 µM; at human TLR2 [2] it was 0.4 µM; at human TLR9 it was 0.26 µM.
In the case of `Oc1c(F)cc(-c2nc(-c3ccc(N4CCCC4)cc3)ns2)cc1/C=N/N1CCOCC1` [Compound 166, 2-fluoro-6-((morpholinoimino)methyl)-4-(3-(4-(pyrrolidin-1-yl)phenyl)-1,2,4-thiadiazol-5-yl)phenol], the IC50 on human TLR2 [1] is 2.8 µM; on human TLR2 [2], 1 µM; on human TLR9, 0.14 µM and 0.18 µM.
In the case of `O=Cc1cc(C(=O)Nc2ncc(-c3ccccc3)s2)cc(F)c1O` [Compound 4, 3-fluoro-5-formyl-4-hydroxy-N-(5-phenylthiazol-2-yl)benzamide], the figures for the IC50 on human TLR2 [1], on human TLR2 [2] and on human TLR9 were 0.9 µM, 0.5 µM and 0.2 µM, respectively.
